From patent US12186331B2, “Compositions comprising at least one n-acetylated and at least one fucosylated oligosaccharide for use in the promotion of digestive capacity in infants and young children” (SOCIETE DES PRODUITS NESTLE S.A., priority 2017, dated 2025) come the findings set out here.

The experiment has as its system villi in the ileum of IUGR rats. Kind of experiment: Villi length in the ileum of young rats with intra-uterine growth retardation (IUGR) fed HMO-supplemented diet. It is filed as in vivo, Sprague-Dawley rats. To be noted: IUGR rat pups, 3 g/kg body weight by gavage d7-d21, 4.5% in diet d22-d57, sacrifice at day 57, compared with IUGR group and other groups. The text has this: Three groups of time-mated pregnant Sprague-Dawley female rats were bought from Charles River laboratories. One group was submitted to food restriction of 60% during the last 10 days of gestation and their offspring were cross-fostered to normally fed rats. A second group of pregnant females was normally fed and their offspring cross-fostered among the same group of dams. […] Normal-weight offspring born from unrestricted dams and fed a normal non-supplemented diet; • IUGR group (negative control; n=20): IUGR rats being fed a normal diet after birth; • IUGR rats+HMO (test groups): During the experiment, they were reared by their mothers for 21 days and supplemented with HMOs (2FL, LNnT or the Mix of 2FL and LNnT). At weaning, they were fed a diet supplemented with the same HMOs, see details below. […] All rat pups were fed from birth (d=1) up to 57 days (d=57) based on the following protocol: • d1 to d6: all groups of rats were nursed by dam (mothers' milk only); • d7 to d21: all rats were nursed by dam (mothers' milk only). But in the test groups, 3 g/kg body weight of HMO were also administered by gavage: • 3 g/kg body weight of 2FL, for the IUGR/2FL group; • 3 g/kg body weight of LNnT, for the IUGR/LNnT group; • 3 g/kg body weight of a mix of LNnT and 2FL at a 1:2 weight ratio, for the IUGR/HMOs mix group; • […] to […]: all rats were fed a diet as detailed in Table 2 below. Rats were sacrificed at day 57 after a 6-hr fasting period and samples of the small intestine were collected. The length of the villi was measured on a sample of the ileum. One 1-cm sample from the ileum (1 cm cranial from caecum) was collected and flushed with PBS (Sigma D8537). This section was fixed and processed accordingly for histological and morphometric analysis. Two consecutive 4 μm-thick sections of fixed tissue were stained manually with hematoxylin and eosin to determine villus height. […] Ten randomly selected villi were measured in two different segments to determine the mean villi length.

Entries after “also recorded” stand apart in the source; their conditions may differ.

For the compound 2′-fucosyllactose [2FL], the “mean villi length in the ileum” value is on record as “neither 2FL, nor LNnT achieved a statistically significant effect when used alone”. Moreover, the “mean villi length in the ileum” value (listed as 2-FL) is “no significant difference with the IUGR group”. For `CC(=O)N[C@H]1[C@H](O[C@H]2[C@@H](O)[C@@H](CO)O[C@@H](O[C@H]3[C@H](O)[C@@H](O)C(O)O[C@@H]3CO)[C@@H]2O)O[C@H](CO)[C@@H](O[C@@H]2O[C@H](CO)[C@H](O)[C@H](O)[C@H]2O)[C@@H]1O` (mixture of isomers) [LNnT, lacto-N-neotetraose], the “mean villi length in the ileum” value was “neither 2FL, nor LNnT achieved a statistically significant effect when used alone; also recorded: no significant difference with the IUGR group”.
